From the NIST ThermoML archive (doi:10.1021/acs.jced.5b00152)

Conditions: Liquid; for viscosity: Capillary tube (Ostwald / Ubbelohde) method; for mass density: Vibrating tube method

CCCCCO [pentan-1-ol]
Conditions	mass density, 298.15 K [kg/m3]	mass density, 323.15 K [kg/m3]	viscosity, 298.15 K [mPa·s]	viscosity, 323.15 K [mPa·s]
1999 kPa	–	794.19	–	1.835
2003 kPa	811.93	–	3.593	–
3999 kPa	813.3	–	3.661	–
4001 kPa	–	795.77	–	1.868
6001 kPa	–	797.32	–	1.903
6003 kPa	814.64	–	3.731	–
8000 kPa	–	798.83	–	1.937
8005 kPa	815.96	–	3.799	–
9998 kPa	–	800.31	–	1.972
10001 kPa	817.26	–	3.867	–
12999 kPa	–	802.47	–	2.025
13000 kPa	819.15	–	3.972	–
16001 kPa	–	804.56	–	2.078
16004 kPa	821	–	4.08	–
19002 kPa	–	806.59	–	2.134
19006 kPa	822.8	–	4.19	–
22000 kPa	824.56	–	4.301	–
22001 kPa	–	808.56	–	2.19
24998 kPa	826.27	–	4.41	–
25002 kPa	–	810.48	–	2.245

CCO [ethanol]
Conditions	mass density [kg/m3]	viscosity [mPa·s]
298.15 K, 1022 kPa	785.87	1.086
298.15 K, 3922 kPa	788.69	1.112
298.15 K, 8793 kPa	792.53	1.148
298.15 K, 12491 kPa	795.7	1.175
298.15 K, 17711 kPa	799.91	1.213
298.15 K, 21982 kPa	802.87	1.244
298.15 K, 24097 kPa	804.5	1.26
298.15 K, 26940 kPa	806.36	1.28
298.15 K, 29139 kPa	807.89	1.296
323.15 K, 3237 kPa	766.361	0.711
323.15 K, 9248 kPa	772.358	0.7435
323.15 K, 12839 kPa	775.758	0.7616
323.15 K, 18790 kPa	780.78	0.7928
323.15 K, 23256 kPa	784.532	0.8153
323.15 K, 25042 kPa	786.147	0.8236
323.15 K, 27936 kPa	788.458	0.8367
323.16 K, 626 kPa	763.659	0.6978
323.16 K, 15104 kPa	777.664	0.7732
333.27 K, 16623 kPa	770.196	0.6592
333.28 K, 909 kPa	754.25	0.5872
333.28 K, 1891 kPa	756.361	0.5916
333.28 K, 5093 kPa	758.805	0.6065
333.28 K, 9067 kPa	762.841	0.6251
333.28 K, 12887 kPa	766.568	0.6421
333.28 K, 22108 kPa	775.145	0.684
333.28 K, 25690 kPa	777.944	0.6985
333.28 K, 29272 kPa	780.933	0.7133
